In patent US5326902A, “Oxyalkyne compounds, pharmaceutical compositions containing them and processes for preparing such compounds and compositions” (Gruenenthal GmbH, priority 1992, dated 1994):

Experiments:
5-lipoxygenase = molecular target: T1, 5-lipoxygenase (Rattus norvegicus, UniProt P12527); assay: Inhibition of Cell-free 5-lipoxygenase from RBL-1-cells (polarographic, 10,000 × g supernatant); type: biochemical; details: 10,000 × g supernatant of homogenized RBL-1-cells; arachidonic acid 75 μM; 35° C.; calculated IC50
T1 construct: endogenous in cells; host or cells: RBL-1 cells (rat basophilic leukemia)
T1 sequence (P12527 1-673): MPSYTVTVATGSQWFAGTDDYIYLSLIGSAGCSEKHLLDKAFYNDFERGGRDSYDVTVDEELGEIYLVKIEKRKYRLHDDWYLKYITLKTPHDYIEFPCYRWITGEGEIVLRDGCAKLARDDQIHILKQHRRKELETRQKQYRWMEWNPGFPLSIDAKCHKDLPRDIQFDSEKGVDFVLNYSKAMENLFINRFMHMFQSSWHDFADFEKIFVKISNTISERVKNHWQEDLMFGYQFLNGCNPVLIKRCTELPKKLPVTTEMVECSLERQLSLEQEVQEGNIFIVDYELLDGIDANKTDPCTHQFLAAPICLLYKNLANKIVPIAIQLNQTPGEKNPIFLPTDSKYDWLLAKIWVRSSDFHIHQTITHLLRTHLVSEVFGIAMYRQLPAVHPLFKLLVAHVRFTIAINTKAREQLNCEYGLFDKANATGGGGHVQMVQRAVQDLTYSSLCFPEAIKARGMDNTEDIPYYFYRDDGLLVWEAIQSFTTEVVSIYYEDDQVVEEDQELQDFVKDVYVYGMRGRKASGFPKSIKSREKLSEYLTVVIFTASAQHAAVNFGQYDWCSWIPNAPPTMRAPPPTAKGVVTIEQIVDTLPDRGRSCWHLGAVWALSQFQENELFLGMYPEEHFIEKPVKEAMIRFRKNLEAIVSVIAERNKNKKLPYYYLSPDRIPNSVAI
Description: Cell-free 5-lipoxygenase was polarographically measured from 10,000 × g supernatant of homogenized rat basophilic leucemia cells (M. Haurand & L. Flohe in Biol. Chem. Hoppe-Seyler 369, 133 to 142 (1988)). After preincubation of the 10,000 × g supernatant with arachidonic acid (75 μM), ATP (adenosine triphosphate; 4 mM), reduced glutathione (4 mM), and either a compound according to the invention (0.1 to 100 μM) or a solvent (ethanol and/or dimethyl sulfoxide) at 35° C. for 5 minutes, the lipoxygenase reaction was initiated by addition of calcium chloride (3 mM) and simultaneously recorded.
The activity of 5-lipoxygenase was determined from the difference in the pO2 -decrease before and after addition of calcium chloride. The evaluation included the initial rate of the reaction after the lag-phase as well as the duration of the lag-phase. In the concentration range of from 3 to 50 μM, the test substances induced lag-phases between 20 and 60 seconds.

12-lipoxygenase [1] = molecular target: T2, 12-lipoxygenase (Homo sapiens, UniProt P18054); assay: Inhibition of 12-lipoxygenase in human blood; type: cell-based; design: 3 ml aliquots of human whole blood treated with heparin; from tissue; host or cells: human whole blood (heparinized); details: human whole blood; calcium ionophore A 23 187 15 μg/ml; 37° C., 30 minutes; 12-HETE by HPLC
T2 sequence (P18054 1-663): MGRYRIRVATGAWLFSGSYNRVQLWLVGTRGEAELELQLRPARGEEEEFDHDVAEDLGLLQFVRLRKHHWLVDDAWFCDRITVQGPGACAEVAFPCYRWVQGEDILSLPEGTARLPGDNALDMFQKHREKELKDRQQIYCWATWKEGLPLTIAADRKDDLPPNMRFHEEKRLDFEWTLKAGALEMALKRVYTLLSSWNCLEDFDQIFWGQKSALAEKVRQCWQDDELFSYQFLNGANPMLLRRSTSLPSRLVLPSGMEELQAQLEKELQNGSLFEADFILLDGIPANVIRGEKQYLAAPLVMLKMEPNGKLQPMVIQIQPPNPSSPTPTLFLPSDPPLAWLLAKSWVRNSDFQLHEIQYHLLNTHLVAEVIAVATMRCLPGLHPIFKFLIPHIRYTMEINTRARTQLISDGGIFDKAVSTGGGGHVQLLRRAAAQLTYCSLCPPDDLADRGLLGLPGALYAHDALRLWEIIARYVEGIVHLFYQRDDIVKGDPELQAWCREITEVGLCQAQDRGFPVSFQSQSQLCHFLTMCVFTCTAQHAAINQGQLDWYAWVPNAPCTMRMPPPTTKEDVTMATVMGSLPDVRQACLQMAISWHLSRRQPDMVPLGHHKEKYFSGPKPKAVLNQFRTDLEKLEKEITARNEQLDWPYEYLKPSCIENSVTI
Description: 3 ml aliquots of human whole blood treated with heparin were incubated either with a compound according to the invention or with dimethyl sulfoxide at 37° C. for 5 minutes. Then 12-lipoxygenase was activated by addition of calcium ionophore A 23 187 (15 μg/ml blood). After incubation at 37° C. for 30 minutes and centrifugation, cell-free plasma was obtained. Plasma protein was precipitated by addition of 2 ml of ethanol per ml of plasma and then separated by centrifugation. After adjusting the ethanol content in the supernatant with water to 10% by volume, the 12-lipoxygenase product 12-HETE was enriched by solid phase extraction using an octadecyl silica column. The methanolic eluate was evaporated to dryness, diluted in 40% by volume of methanol, and the 12-HETE-content was determined by HPLC. The IC50 -values of the compounds of the invention prepared according to Examples 1, 8 and 16 were 2, 4 and 3 μmolar, respectively.

12-lipoxygenase [2] = molecular target: T2, 12-lipoxygenase; assay: Inhibition of 12-lipoxygenase in homogenates of human thrombocytes; type: biochemical; details: arachidonic acid 40 μM, indomethacin 10 μM, 25° C., read-out: IC50-value of the inhibitory action on 12-Lipoxygenase
Description: Human thrombocytes were suspended at 3×10^9 cells/ml, fumigated with nitrogen, and sonicated with ultrasonic energy while cooling in ice water. After centrifugation at 10.000 × g for 15 minutes, reduced glutathione (3 mM) was added. 1 ml portions of the 10,000 × g supernatant were incubated with a compound according to the invention or with ethanol at 25° C. for 4 minutes and then with 1-^14 C-labelled arachidonic acid (40 μM) for 7.5 minutes. In addition, indomethacin (10 μM) was added to each sample. The reaction was stopped by adding acetic acid, and then the metabolites of arachidonic acid were extracted with ethyl acetate and analyzed by thin layer chromatography. The distribution of the […] fractions was measured using a TLC-linear analyzer. The IC50 -values were determined graphically from semilogarithmic plots. The IC50 -value of the inhibitory action on 12-Lipoxygenase was 1 μmolar when the compound prepared according to Example 1 was used.

- IC50 (5-lipoxygenase): 5 µM
- IC50 (12-lipoxygenase [1]): 2000 nM
- IC50 (12-lipoxygenase [2]): 1000 nM
SMILES: CC(=O)N(O)Cc1ccc(C(O)C#Cc2ccccc2)cc1 (racemic) [Example 1, N-Hydroxy-N-[4-[1-hydroxy-3-phenyl-prop-2-yn-1-yl]benzyl]acetamide]
